From patent US10941382B2, “Platelet production promoter and method of producing platelets using same” (Kyoto University, priority 2016, dated 2021)

What was measured:
MKCL SeV2 = assay: Relative number of platelets by FACS (anti-CD41/anti-CD42b) from immortalized megakaryocyte line cultured with inhibitor; assay type: cell-based, human; conditions: 7th day of cultivation; 6-well dish; medium with 10 μM Y-27632, 50 ng/mL TPO, 50 ng/mL SCF; conclusion from FIG. 3 and FIG. 4 results
Protocol: The platelet production-promoting effect of the Wnt inhibitor and FLT3 inhibitor was then investigated. MKCL SeV2, on which the aforementioned reporter immortalized megakaryocyte cell line (MKCL#12-23 cre2) was based, was cultured in a 6-well dish on a differentiation medium supplemented with the Wnt or FLT3 inhibitor, 10 μM Y-27632, 50 ng/mL TPO, and 50 ng/mL SCF, or on a differentiation medium supplemented with 0.75 μM SR1, 10 μM Y-27632, 50 ng/mL TPO, and 50 ng/mL SCF (positive control), or on a differentiation medium supplemented with 0.1% DMSO, 10 μM Y-27632, 50 ng/mL TPO, and 50 ng/mL SCF (negative control). On the 7th day of cultivation, the culture medium was suspended and the supernatant was recovered; staining with anti-CD41 antibody and anti-CD42b antibody was performed; and FACS analysis was carried out. The relative number of platelets was calculated with correction of the platelet count for use of the particular inhibitor with the platelet count for the positive control (made 100%) and the platelet count for the negative control (made 0%) (FIG. 4).

iPS cells (TkDA3-4) = assay: Platelet production from iPS cell-derived cells under nonuse of feeder cells, FACS (anti-CD41/anti-CD42b); assay type: cell-based; conditions: 10 days of culture, 1 μM C59 or 3.3 μM FLT3 inhibitor versus 0.75 μM SR1, heparin, Y-27632, TPO, SCF
Protocol: iPS cells (TkDA3-4) were cultured and a colony was detached using a cell scraper and was cultured on a differentiation medium supplemented with […] VEGF. After 14 days, the cells were recovered using a cell scraper and 25 U/mL heparin, 10 μM Y-27632, 100 ng/mL TPO, and 50 ng/mL SCF were added. 0.1% DMSO, 0.75 μM SR1, 1 μM C59 (Calbiochem), or 3.3 μM FLT3 inhibitor (Santa Cruz Biotechnology) was also added to this culture medium and culture was carried out for 10 days. This was also carried out under the condition of the use of feeder cells as described above. The obtained cells were suspended and the supernatant was recovered; staining with anti-CD41 antibody and anti-CD42b antibody was performed; and FACS analysis was carried out (FIG. 4).

[1] = test system: reporter immortalized megakaryocyte cell line (MKCL#12-23 cre2); assay: VENUS fluorescence intensity of reporter immortalized megakaryocyte cell line cultured with inhibitor; assay type: cell-based, human; conditions: 7th day of culture; 96-well dish; medium with 10 μM Y-27632, 50 ng/mL TPO, 50 ng/mL SCF; versus 0.1% DMSO negative control
Protocol: The platelet production-promoting effect of a Wnt inhibitor and FLT3 inhibitor was then investigated. The aforementioned reporter immortalized megakaryocyte cell line (MKCL#12-23 cre2) was cultured in a 96-well dish on a differentiation medium supplemented with the particular inhibitor at a prescribed concentration, 10 μM Y-27632, 50 ng/mL TPO, and 50 ng/mL SCF, or on a differentiation medium supplemented with 0.75 μM SR1, 10 μM Y-27632, 50 ng/mL TPO, and 50 ng/mL SCF (positive control), or on a differentiation medium supplemented with 0.1% DMSO, 10 μM Y-27632, 50 ng/mL TPO, and 50 ng/mL SCF (negative control). When the VENUS fluorescence intensity was measured on the cells on the 7th day of culture, the fluorescence intensity was increased for media to which the Wnt inhibitor or FLT3 inhibitor had been added. The results of calculation of the relative fluorescence intensity are given in FIG. 3, where the platelet count for use of the particular inhibitor was corrected with the platelet count for the positive control (made 100%) and the platelet count for the negative control (made 0%).

## Cc1cc(-c2ccc(CC(=O)Nc3ccc(-c4cccnc4)cc3)cc2)ccn1 [C59, 4-(2-methyl-4-pyridinyl)-N-[4-(3-pyridinyl)phenyl]benzeneacetamide]
MKCL SeV2
  platelet production-promoting effect (platelet inducer): strong platelet inducers
iPS cells (TkDA3-4)
  platelet production capacity compared with SR1: same as or greater
[1]
  VENUS fluorescence intensity: increased

## COc1ccc(C(=O)Nc2sc3c(c2C(N)=O)CCCC3)cc1OC [FLT3 inhibitor, 2-[(3,4-dimethoxybenzoyl)amino]-4,5,6,7-tetrahydrobenzo[b]thiophene-3-carboxamide]
MKCL SeV2
  platelet production-promoting effect (platelet inducer): strong platelet inducers
iPS cells (TkDA3-4)
  platelet production capacity compared with SR1: same as or greater
[1]
  VENUS fluorescence intensity: increased
